Here are results for 2 compounds from patent publication US20210177751A1, “HYPOTONIC HYDROGEL FORMULATIONS FOR ENHANCED TRANSPORT OF ACTIVE AGENTS AT MUCOSAL SURFACES” (The Johns Hopkins University, priority 2017, published 2021).

Data set [1] in a line: ocular tissue distribution in farm pigs (LC-MS). The format is in vivo, pig. Conditions: 4 mg/ml in 12% F127, daily for 5 days; tissues 1 h after final dose. The procedure: (§1) Sunitnib malate was dissolved in 12% F127 at a concentration of 4 mg/ml and dosed topically to pigmented (Dutch belted) rabbits and pigmented pigs (juvenile farm pigs) once per day for a total of 14 days or 5 days, respectively. Dosing in both rabbits and pigs occurred without anesthesia and 50 uL or 50˜100 uL of an eye drop was administered, respectively. However, dosing in pigs occurred while distracted with food. Tissues were collected 6 h after the final dose for rabbits and 1 h after the final dose for pigs. The drug concentrations were measured by LC-MS.

Data set [2] can be described thus: ocular tissue distribution in Dutch belted rabbits (LC-MS). The format is in vivo, rabbit. As to conditions: 4 mg/ml in 12% F127, daily for 14 days; tissues 6 h after final dose. The procedure: as §1
Another data set concerns C57/B6 mice. Description: laser-induced choroidal neovascularization (CNV) in mice. The format is in vivo, mouse. Conditions: topical daily for 7 days. As for the experimental part:
C57/B6 mice where used to test the topical delivery of sunitinib malate (5 uL at 4 mg/mL) and acriflavine (5 uL at 5 mg/mL) in preventing choroidal neovascularization (CNV) in mice after laser induced rupture of Bruch's membrane in three locations. After laser, both drugs either dissolved in 12% F127 or a aqueous vehicle control (saline or water), were dosed daily for 7 days.

Data set [3] relates to retinal ganglion cells (RGCs). The data set can be described thus: optic nerve crush after 5 daily topical doses, pigmented rats. The format is in vivo, rat (Brown Norway). As to conditions: in 12% F127, daily for 5 days before crush; 14 days after crush; pigmented rats (Brown Norway). As for the experimental part: Rats were dosed topically with sunitinib malate (5 uL at 4 mg/mL) in 12% F127 daily for 5 days unilaterally. Then, the optic nerve head was exposed and crushed unilaterally and the contralateral eye was used as the control for comparison. 14 days after crushing the nerve (without additional topical dosing), the tissues were isolated for qPCR for genes expressed by retinal ganglion cells (RGCs).

Data set [4] relates to retinal ganglion cells (RGCs). The data set can be described thus: optic nerve crush with once weekly topical dosing. The format is in vivo, rat (Brown Norway). As to conditions: Day 22. As for the experimental part:
Pigmented rats (Brown Norway) were dosed topically (5 uL at 4 mg/mL) with sunitinib malate in 12% F127 or in saline once weekly unilaterally. The optic nerve head was exposed and crushed unilaterally on Day 8 and the contralateral eye was used as the control for comparison. 14 days after crushing the nerve (Day 22), the tissues were isolated for qPCR for genes expressed by retinal ganglion cells (RGCs).

The mark [5] stands for this setting: dissolved in aqueous vehicle control (saline or water).

Take `CCN(CC)CCNC(=O)c1c(C)[nH]c(/C=C2\C(=O)Nc3ccc(F)cc32)c1C` [sunitinib malate]: the “sunitinib and N-desethyl sunitinib levels in ocular tissues and fluids” value in data set [1] is “Therapeutically relevant levels of drug were found in the anterior and posterior segments”; in data set [2], “Therapeutically relevant levels of drug were found in the anterior and posterior segments”. For the same compound, the “suppression of choroidal neovascularization” value in the data set on C57/B6 mice (dissolved in 12% F127) was “efficacious in suppressing neovascularization in the choroid”; in the data set with C57/B6 mice (setting [5]), “Only the formulations containing 12% F127 were efficacious”. The “protection of RGCs (qPCR for RGC genes)” value in data set [3] is recorded as “protection of RGCs”; in data set [4] (in 12% F127, once weekly), “Protection of RGCs was only observed when sunitinib malate was dosed in 12% F127”; in data set [4] (in saline, once weekly), “not when sunitinib malate was dosed in saline”.

acriflavine: the “suppression of choroidal neovascularization” value is reported as “efficacious in suppressing neovascularization in the choroid” with C57/B6 mice (dissolved in 12% F127) and “Only the formulations containing 12% F127 were efficacious” in the data set with C57/B6 mice (setting [5]).
